# From patent US20230240953A1, “AN ANTIMICROBIAL COMPOSITION, PROCESS FOR PREPARING THE SAME AND METHOD OF USE THEREOF” (ISP INVESTMENTS LLC, priority 2020, published 2023)
# System: Aspergillus brasiliensis 16404
# Experiment: Checkerboard microplate synergy assay, compound A = HPB
# Type: cell-based
# Parameters: key to SI index (Synergy Index = Qa/QA+Qb/QB): SI = Qa/QA + Qb/QB (MICs in ppm); <1 synergy, =1 additive, >1 antagonism
# Details: for MIC: Aspergillus brasiliensis, 16404, compound B alone, read-out: Compound B (Qb): MIC of compound B acting alone; for Interaction / SI index (Synergy Index = Qa/QA+Qb/QB): HPB + compound B
# Experimental: The synergistic antimicrobial effect was determined using a commonly accepted method described by Kull A. C, Eisman, P. C. Sylwestrowicz, H. D. and Mayer, R. L. 1961. Applied Microbiology, 9:538-541
# Briefly, the standard checkerboard approach was used to make all the dilutions. HPB (compound A) solution was prepared and then serially diluted in DMSO using the 96-well dilution plate. Automated liquid handler was then used to stamp multiple assay plates using this dilution plate. Each well of the assay plate was then supplemented with a predetermined concentration of the second antimicrobial (compound B). The final concentration of DMSO was kept constant across the plate for each assay, not exceeding 3% (w/w).
# To evaluate antifungal activity of the actives, freshly prepared A. brasiliensis spores were harvested and resuspended in Yeast and Malt Broth (YMB). The spore suspension was then added to the appropriate plates with the final density being 10^5 cfu/ml.
# To evaluate antibacterial activity of the actives, freshly prepared S. aureus and B. cepacia cells were harvested and resuspended in Trypticase Soy Broth (TSB). The cell suspension was then added to the wells of the appropriate plates with the final cell density being 10^6 cfu/ml. Fungal plates were incubated at 28° C. for 4-5 days, prior to being evaluated. Bacterial plates were incubated for 48 hours at 35° C. prior to being evaluated.
# Synergy Index (SI)=Qa/QA+Qb/QB • Qa is the MIC of compound A (HPB) in ppm, when compound A is being used in combination with compound B • QA is the MIC of compound A (HPB) in ppm, acting alone • Qb is the MIC of compound B in ppm, when the compound B is being used in combination with compound A • QB is the MIC of compound B in ppm, acting alone Each ratio Qa/QA and Qb/QB is sometimes referred to as Fractional Inhibitory Concentrations (FICs) of compounds A and B, respectively, when these two compounds are being used in combination with one another. The sum of FICs constitute the Synergy Index (SI). The synergistic effect is indicated if the Synergy Index is below one (SI<1). An additive effect is indicated if the Synergy Index is equal to one (SI=1). An antagonistic effect is indicated if synergy index is greater than one (SI>1). The lower the SI index the greater the synergy.
Molecule,MIC [µg/mL],Interaction,SI index (Synergy Index = Qa/QA+Qb/QB),Compound B (Qb): MIC of compound B when used in combination with HPB,Compound B (Qb): MIC of compound B acting alone
O=P(O)(O)O[C@H]1[C@H](OP(=O)(O)O)[C@@H](OP(=O)(O)O)[C@H](OP(=O)(O)O)[C@@H](OP(=O)(O)O)[C@H]1OP(=O)(O)O [Phytic acid],12500,Synergistic (The synergistic effect is indicated if the Synergy Index is below one (SI<1)),0.75,"3,125 ppm",
"CCCCCCC(O)CO (centres unmarked) [1,2-Octanediol]",1600,Synergistic (The synergistic effect is indicated if the Synergy Index is below one (SI<1)),0.56,100 ppm,
CCCCC(CC)COCC(O)CO (centres unmarked) [Ethylhexylglycerin],,Synergistic (The synergistic effect is indicated if the Synergy Index is below one (SI<1)),0.56,100 ppm,"1,600 ppm"
Glyceryl caprylate/caprate,,Synergistic (The synergistic effect is indicated if the Synergy Index is below one (SI<1)),0.75,800 ppm,"3,125 ppm"
O=C(O)CC[C@@H](C(=O)O)N(CC(=O)O)CC(=O)O [GLDA],,Synergistic (The synergistic effect is indicated if the Synergy Index is below one (SI<1)),0.75,"1,600 ppm","6,250 ppm"
"CCCC(O)CO (centres unmarked) [1,2-Pentanediol]",100000,Additive (An additive effect is indicated if the Synergy Index is equal to one (SI=1)),1,"50,000 ppm",
Cc1occc(=O)c1O [Maltol],2000,Synergistic (The synergistic effect is indicated if the Synergy Index is below one (SI<1)),0.75,"1,000 ppm",
"CCCCC(O)CO (centres unmarked) [1,2-Hexanediol]",12500,Additive (An additive effect is indicated if the Synergy Index is equal to one (SI=1)),1,"6,300 ppm",
"OCCCO [1,3-Propanediol]",,Additive (An additive effect is indicated if the Synergy Index is equal to one (SI=1)),≤1,"100,000 ppm","≥200,000 ppm"
COc1ccc(C(=O)O)cc1 [Anisic acid],,Synergistic (The synergistic effect is indicated if the Synergy Index is below one (SI<1)),0.75,250 ppm,"1,000 ppm"
O=C(O)c1ccccc1 [Benzoic acid],1000,Synergistic (The synergistic effect is indicated if the Synergy Index is below one (SI<1)),0.75,500 ppm,
O=C(O)CN(CCN(CC(=O)O)CC(=O)O)CC(=O)O [EDTA],,Synergistic (The synergistic effect is indicated if the Synergy Index is below one (SI<1)),0.56,800 ppm,"12,500 ppm"
Hexyl glycerin,,Additive (An additive effect is indicated if the Synergy Index is equal to one (SI=1)),1,"1,600 ppm","3,125 ppm"
O=C(O)C=Cc1ccccc1 [Cinnamic acid],500,Additive (An additive effect is indicated if the Synergy Index is equal to one (SI=1)),1-2,500 ppm,
